# Assays:
# [1] = test system: B cells collected from mice; assay: LPS-induced differentiation into mature B cells (IgM/IgD flow cytometry); type: cell-based, mouse; conditions: 10 μM compound, 10 μg/mL LPS, 10 days
# Protocol: B cells collected from mice were cultured in RPMI 1640 medium for 1 day. Then, 10 μM mangiferin 8a and 10 μM norathyriol were added to B cell, and after 1 day of culture, 10 μg/mL of LPS was added, followed by 10 days of culture. After 10 days of culture, cells were stained with anti-IgM and anti-IgD antibodies, markers of B cells, and the expression of IgM and IgD was measured using BD LSRFortessa. Note that IgM negative and IgD negative indicates pre-B cells, IgM positive and IgD negative indicates immature B cells, and IgM positive and IgD positive indicates mature B cells.
# [2] = test system: mouse macrophages; assay: LPS-stimulated macrophage proliferation (trypan blue); type: cell-based; conditions: 10 μM compound, 10 μg/mL LPS 3 days, control 10.65×10^4, LPS 19×10^4
# Protocol: The inhibitory effect of the compound on macrophage cell proliferation was examined using mouse macrophages.
# Macrophages collected from mice were cultured in RPMI 1640 medium for 1 day. Then, 10 μM mangiferin 8a and 10 μM norathyriol were added to macrophages, and after 1 day of culture, 10 μg/mL of lipopolysaccharide (LPS) was added to each for 3 days. After 3 days of incubation, the number of viable cells was determined by the trypan blue dye method. Note that LPS was used as an allergic inflammation inducer.
# Referring to FIG. 49, the horizontal axis indicates treatment with each compound and the vertical axis indicates cell count (1×10^4 cells/mL). Only 0.5% DMSO in PBS, which was used to dissolve the reagent (compound), was added as control. The LPS group is referred to as the LPS group with 10 μg/mL LPS, the mangiferin 8a group is referred to as the mangiferin 8a group with LPS and mangiferin 8a, and the norathyriol group is referred to as the norathyriol group with LPS and norathyriol.
# [3] = test system: IL-4; assay: Auricular tissue IL-4 ELISA, atopic dermatitis mice; type: in vivo, mouse; conditions: day 7, topical application, control 56, vehicle 152
# Protocol: MC903 at 2 nM was applied to the right auricle of a 6-week-old male Balb/c (Japan SLC Inc.). Starting 8 h later, 5% norathyriol aqueous solution (1 mL of ethanol containing […] of norathyriol), betamethasone ointment, and delgocitinib ointment were applied to the auricle for 7 days. The measurement of auricular skin swelling was calculated by calipers. The day on which the first application of the compound was made was defined as day 0. Betamethasone and delgocitinib are currently in clinical use in atopic dermatitis and were used as control drugs in this example.
# The mouse IL-4 ELISA kit (R&D) was used for this measurement.
# [4] = test system: Monocytes collected from mice; assay: LPS-induced M1 macrophage activation (CD80 flow cytometry); type: cell-based, mouse; conditions: 10 μM compound, 10 μg/mL LPS, 10 days; vs LPS-added group
# Protocol: Monocytes collected from mice were cultured in RPMI 1640 medium for 1 day. Then, 10 μM mangiferin 8a and 10 μM norathyriol were added to Monocytes, and after 1 day of culture, 10 μg/mL of LPS was added, followed by 10 days of culture. After 10 days of culture, cells were stained with anti-CD11b and anti-F4/80 antibodies, markers of macrophages, and anti-CD80 antibody, marker of M1 macrophages, and CD80 (CD11b positive and F4/80 positive) expression was measured using BD LSRFortessa.
# [5] = test system: Balb/c mice with ovalbumin-induced food allergy; assay: Frequency of diarrhea, ovalbumin-induced food allergy mice; type: in vivo, mouse; conditions: OVA food allergy; oral daily 14 days from day 14, 10 mg/kg (dexamethasone 2 mg/kg); measured day 28; vs vehicle group
# Protocol: A 0.2 mL dose of 10 μg ovalbumin (OVA) and 1 mg Alum mixture was administered to 6-week-old female Balb/c mice (Japan SLC Inc.) (day 0 of the example). Alum was used as an adjuvant. Seven days later, the Balb/c mice were immunized again with a 0.2 mL injection of the above mixture. Starting on day 14, mice were orally treated with 10 mg/kg of norathyriol, 10 mg/kg of mangiferin 8a, 10 mg/kg of tofacitinib (JAK inhibitor), 2 mg/kg of dexamethasone (steroid) and 10 mg/kg of olopatadine (antihistamine) daily for 14 consecutive days. Starting on day 14, 10 mg OVA was administered orally every other day […], and the frequency of diarrhea was measured after the final administration on day 28. Note that tofacitinib, dexamethasone, and olopatadine are currently in clinical use in food allergy and were used as control drugs in this example.
# The group that was just immunized with OVA is called the subject group, the one that received norathyriol is called the norathyriol group, the one that received mangiferin 8a is called the mangiferin 8a group, the one that received tofacitinib is called the tofacitinib group, the one that received dexamethasone is called the dexamethasone group, and the one that received olopatadine is called the olopatadine group. Each group consisted of five animals.
# [6] = test system: TNFα; assay: LPS-stimulated TNFα secretion in B cells (ELISA); type: cell-based, mouse; conditions: 10 μM compound, 10 μg/mL LPS 2 days, control 15.13, LPS 296.31
# Protocol: Mouse B cells were used to examine the inhibition of compounds on TNFα secretion in LPS stimulation.
# Mouse B cells were cultured in RPMI 1640 medium for 1 day. Then, 10 μM mangiferin 8a and 10 μM norathyriol were added to B cells, and after 1 day of culture, 10 μg/mL of LPS was added to each, followed by 2 days of culture.
# Thus, the samples were divided into “control” with no treatment, “10 μg/mL LPS+10 μM mangiferin 8a” to which 10 μg/mL LPS and 10 μM mangiferin 8a were added, and “10 μg/mL LPS+10 μM norathyriol” to which 10 μg/mL LPS and 10 μM norathyriol were added and only 10 μg/mL LPS was added (“10 μg/L LPS”).
# After these samples were incubated for 2 days, the culture supernatant was collected and TNFα secretion was measured by enzyme-linked immunosorbent assay (ELISA). The mouse TNFα ELISA kit (R&D) was used for this measurement.
# [7] = test system: B cells collected from mice; assay: BAFF-induced differentiation into plasma cells (CD138 flow cytometry); type: cell-based, mouse; conditions: 100 ng/mL BAFF, 10 days; 100 μM mangiferin, 20 μM 1,3,5,6-tetrahydroxyxanthone, 10 μM others; vs BAFF-added group
# Protocol: B cells collected from mice were cultured in RPMI 1640 medium for 1 day. Then, 100 μM mangiferin, 10 μM mangiferin 8a, 10 μM norathyriol, 20 μM 1,3,5,6-tetrahydroxyxanthone, 10 μM xanthohydrol, 10 μM α-mangostin, 10 μM of γ-mangostin were added to B cell, and after 1 day of culture, 100 ng/mL of BAFF was added, followed by 10 days of culture. After 10 days of culture, cells were stained with anti-CD138 antibody, a marker of plasma cells, and CD138 expression was measured using BD LSRFortessa.
# In all figures, the horizontal axis represents the expression level of CD138 and the vertical axis represents the number of cells.
compound,measurement,setting,value
"O=c1c2cc(O)c(O)cc2oc2cc(O)cc(O)c12 [norathyriol, 1,3,6,7-tetrahydroxyxanthone]",population IgM positive and IgD positive (mature B cells),"[1]; control 0.239, LPS only 20.7",0.065%
same,population IgM positive and IgD negative (immature B cells),"[1]; control 1.91, LPS only 41.8",2.14%
same,population IgM negative and IgD negative (pre-B cells),"[1]; control 96.7, LPS only 36.6",97.7%
same,number of viable cells (cell count),[2],7.5×10^4 cells/mL
same,IL-4 secretion,[3],94 pg/mL
same,CD80 expression (CD11b positive and F4/80 positive),[4],markedly reduced
same,frequency of diarrhea,[5],showed a marked decrease in the frequency of diarrhea
same,TNFα secretion,[6],64.13 pg/mL
same,CD138 expression,[7],significantly decreased CD138 expression

# From patent US20260007634A1, “PHARMACEUTICAL COMPOSITIONS FOR THE TREATMENT OF ALLERGIC DISEASES” (KINKI UNIVERSITY, priority 2022, published 2026)
